ChEMBL document CHEMBL4680089, “Development of Allosteric Hydrazide-Containing Class I Histone Deacetylase Inhibitors for Use in Acute Myeloid Leukemia” (J Med Chem, 2016)
Activity calls are given as the source filed them. The rule behind the calls is not given here.

Columns and labels:
[1] = Drug metabolism in human liver microsomes assessed as o-glucuronidated metabolite formation in presence of UDP glucuronic acid incubated for 12 hrs at 37 degC by electrospray ionization liquid chromatography mass spectrometry; type: ADME, Microsome
[2] = Drug metabolism in human liver microsomes assessed as o-glucuronidated metabolite formation in absence of UDP glucuronic acid incubated for 12 hrs at 37 degC by electrospray ionization liquid chromatography mass spectrometry; type: ADME, Microsome
K562 = assay: Cytotoxicity against human K562 cells assessed as reduction in cell viability incubated for 48 hrs by Cell-titer-blue cell viability assay; type: functional, cell-based; details: K562, 48 h
[3] = Drug metabolism in human liver microsomes assessed as compound reduction in absence of UDP glucuronic acid incubated for 12 hrs at 37 degC by electrospray ionization liquid chromatography mass spectrometry; type: ADME, Microsome
MV4-11 = assay: cells; type: functional, cell-based; details: Homo sapiens, MV4-11, 48 h
Description: Cytotoxicity against human MV4-11 cells assessed as reduction in cell viability incubated for 48 hrs by Cell-titer-blue cell viability assay

HL-60 = assay: Cytotoxicity against human HL-60 cells assessed as reduction in cell viability incubated for 48 hrs by Cell-titer-blue cell viability assay; type: functional, cell-based; details: HL-60, 48 h
HEK293 = assay: Cytotoxicity against HEK293 cells assessed as reduction in cell viability incubated for 48 hrs by Cell-titer-blue cell viability assay; type: cell-based; details: human, hek293, 48 h
[4] = biological target: T1, Class 1 histone deacetylase (Homo sapiens) (UniProt Q13547+O15379+Q92769+Q9BY41); details: time 24.0 hrs
T1 sequence (O15379 whole entry, looked up): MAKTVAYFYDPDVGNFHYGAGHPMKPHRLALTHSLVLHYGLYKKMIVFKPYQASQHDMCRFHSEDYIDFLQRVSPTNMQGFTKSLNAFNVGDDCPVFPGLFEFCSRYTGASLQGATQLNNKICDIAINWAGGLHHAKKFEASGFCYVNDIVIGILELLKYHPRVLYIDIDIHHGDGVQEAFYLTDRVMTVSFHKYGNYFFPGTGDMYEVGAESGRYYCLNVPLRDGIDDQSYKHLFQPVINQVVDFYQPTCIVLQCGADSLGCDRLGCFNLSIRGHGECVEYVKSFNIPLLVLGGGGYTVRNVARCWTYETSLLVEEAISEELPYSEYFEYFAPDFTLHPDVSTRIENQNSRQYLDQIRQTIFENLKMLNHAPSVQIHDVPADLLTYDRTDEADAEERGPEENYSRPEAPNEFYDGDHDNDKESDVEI
T1 sequence (Q13547 whole entry, looked up): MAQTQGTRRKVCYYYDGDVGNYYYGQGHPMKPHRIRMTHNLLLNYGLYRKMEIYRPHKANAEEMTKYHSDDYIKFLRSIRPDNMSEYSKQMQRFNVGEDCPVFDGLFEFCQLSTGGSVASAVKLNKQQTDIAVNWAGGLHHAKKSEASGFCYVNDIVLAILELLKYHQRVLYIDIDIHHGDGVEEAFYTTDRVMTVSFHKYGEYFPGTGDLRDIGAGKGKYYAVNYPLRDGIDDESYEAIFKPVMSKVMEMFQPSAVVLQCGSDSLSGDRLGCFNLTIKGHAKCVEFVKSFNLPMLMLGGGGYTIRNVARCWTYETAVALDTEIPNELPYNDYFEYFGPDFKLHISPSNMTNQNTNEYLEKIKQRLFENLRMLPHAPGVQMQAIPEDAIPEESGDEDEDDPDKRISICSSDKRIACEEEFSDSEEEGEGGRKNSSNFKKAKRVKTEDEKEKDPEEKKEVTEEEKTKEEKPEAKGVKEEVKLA
T1 sequence (Q92769 whole entry, looked up): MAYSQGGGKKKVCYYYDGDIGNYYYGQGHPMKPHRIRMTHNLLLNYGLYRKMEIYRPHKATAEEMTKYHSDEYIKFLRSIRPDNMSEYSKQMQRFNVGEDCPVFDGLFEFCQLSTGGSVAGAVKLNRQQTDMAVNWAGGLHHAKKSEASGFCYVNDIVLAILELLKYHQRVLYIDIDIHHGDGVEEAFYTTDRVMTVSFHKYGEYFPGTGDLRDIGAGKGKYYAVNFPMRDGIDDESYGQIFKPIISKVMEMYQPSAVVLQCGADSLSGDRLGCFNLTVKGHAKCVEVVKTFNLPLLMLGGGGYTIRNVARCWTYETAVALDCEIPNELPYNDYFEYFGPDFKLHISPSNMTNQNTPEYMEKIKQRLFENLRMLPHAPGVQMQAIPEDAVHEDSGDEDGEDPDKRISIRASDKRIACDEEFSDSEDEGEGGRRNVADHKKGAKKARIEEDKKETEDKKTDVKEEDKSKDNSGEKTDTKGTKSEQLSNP
T1 sequence (Q9BY41 whole entry, looked up): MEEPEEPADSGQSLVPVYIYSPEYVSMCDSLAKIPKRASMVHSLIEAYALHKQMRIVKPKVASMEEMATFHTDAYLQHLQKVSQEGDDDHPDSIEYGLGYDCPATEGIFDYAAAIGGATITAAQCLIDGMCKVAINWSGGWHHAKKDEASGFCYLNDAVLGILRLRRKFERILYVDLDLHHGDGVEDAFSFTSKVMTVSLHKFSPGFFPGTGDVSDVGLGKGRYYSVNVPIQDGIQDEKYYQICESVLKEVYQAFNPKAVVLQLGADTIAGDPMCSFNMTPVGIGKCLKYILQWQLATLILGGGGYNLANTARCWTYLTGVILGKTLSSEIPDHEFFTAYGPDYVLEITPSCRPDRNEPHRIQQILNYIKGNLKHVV

MOLM-14 = assay: Cytotoxicity against human MOLM-14 cells assessed as reduction in cell viability incubated for 48 hrs by Cell-titer-blue cell viability assay; type: functional, cell-based; details: MOLM-14, 48 h
RS4-11 = assay: Cytotoxicity against human RS4-11 cells assessed as reduction in cell viability incubated for 48 hrs by Cell-titer-blue cell viability assay; type: functional, cell-based; details: RS4-11, 48 h
RPMI-8226 = assay: Cytotoxicity against human RPMI-8226 cells assessed as reduction in cell viability incubated for 48 hrs by Cell-titer-blue cell viability assay; type: functional, cell-based; details: RPMI-8226, 48 h
[5] = Cytotoxicity against human PBMC assessed as reduction in cell viability incubated for 24 hrs by Cell-titer-blue cell viability assay relative to panobinostat
[6] = biological target: T2, Protein deacetylase HDAC6 (Homo sapiens) (UniProt Q9UBN7); details: MV4-11, dose 100.0 nM, time 24.0 hrs
T2 sequence (whole entry): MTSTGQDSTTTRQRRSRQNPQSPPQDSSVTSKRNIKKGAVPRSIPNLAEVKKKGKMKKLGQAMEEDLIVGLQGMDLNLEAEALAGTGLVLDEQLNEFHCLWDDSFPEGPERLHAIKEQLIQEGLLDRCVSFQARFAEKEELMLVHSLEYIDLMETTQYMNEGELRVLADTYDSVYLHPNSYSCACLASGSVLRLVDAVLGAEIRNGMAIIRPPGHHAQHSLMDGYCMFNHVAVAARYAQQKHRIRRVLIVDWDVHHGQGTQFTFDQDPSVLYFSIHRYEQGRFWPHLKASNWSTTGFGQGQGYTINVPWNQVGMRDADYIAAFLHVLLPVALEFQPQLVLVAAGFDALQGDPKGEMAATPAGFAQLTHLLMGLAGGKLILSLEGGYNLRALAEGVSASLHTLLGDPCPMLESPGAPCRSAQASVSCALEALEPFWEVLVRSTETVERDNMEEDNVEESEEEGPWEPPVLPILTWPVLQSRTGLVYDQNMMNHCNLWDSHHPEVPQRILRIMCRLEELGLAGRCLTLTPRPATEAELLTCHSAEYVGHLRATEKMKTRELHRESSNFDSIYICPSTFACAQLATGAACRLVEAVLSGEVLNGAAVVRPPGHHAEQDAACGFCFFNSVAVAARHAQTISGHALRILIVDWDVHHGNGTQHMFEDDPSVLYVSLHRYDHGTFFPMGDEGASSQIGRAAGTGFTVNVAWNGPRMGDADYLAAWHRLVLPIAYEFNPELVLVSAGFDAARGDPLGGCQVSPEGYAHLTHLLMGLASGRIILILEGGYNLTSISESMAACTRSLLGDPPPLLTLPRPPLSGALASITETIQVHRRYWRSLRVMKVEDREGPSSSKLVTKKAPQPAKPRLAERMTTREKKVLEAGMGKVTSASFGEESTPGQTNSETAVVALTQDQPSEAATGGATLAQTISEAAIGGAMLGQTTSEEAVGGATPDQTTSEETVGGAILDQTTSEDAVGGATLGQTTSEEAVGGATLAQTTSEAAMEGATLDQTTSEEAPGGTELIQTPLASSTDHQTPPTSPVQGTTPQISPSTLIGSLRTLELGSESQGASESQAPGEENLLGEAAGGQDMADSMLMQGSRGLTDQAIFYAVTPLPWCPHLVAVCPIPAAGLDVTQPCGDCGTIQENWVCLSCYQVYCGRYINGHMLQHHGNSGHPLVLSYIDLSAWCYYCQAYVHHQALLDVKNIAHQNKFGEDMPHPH

[7] = biological target: T1, Class 1 histone deacetylase (Homo sapiens); details: time 24.0 hrs; remark: listed apart in the source
Histone deacetylase 3 = Histone deacetylase 3 (Homo sapiens, UniProt O15379); assay: Allosteric inhibition of C-terminal His-tagged recombinant human HDAC3 expressed in Sf9 cells pre-incubated for 2 hrs before acetylated lysine-aminomethyl coumarin-BOC addition and measured after 2 hrs by fluorescence based assay
Histone deacetylase 3, sequence (O15379 whole entry): as the sequence (O15379 whole entry, looked up) above

[8] = Cytotoxicity against human PBMC assessed as reduction in cell viability at 10 nM incubated for 24 hrs by Cell-titer-blue cell viability assay; details: 0.01 µM
[9] = MV4-11, filed as negative allosteric modulator, dose 100.0 nM

Row | Drug metabolism [1] | Drug metabolism [2] | EC50 (MV4-11) | inhibition [4, 9] | inhibition [6] | inhibition [7, 9] | IC50 (Histone deacetylase 3) | SMILES | Activity (HEK293) | other results
1 | Metabolite_Detected | Metabolite_Notdetected |  |  |  |  |  | O=C(CCCCCCC(=O)Nc1ccccc1)NO [VORINOSTAT] |  | 
2 | Metabolite_Notdetected | Metabolite_Notdetected | 0.0364 µM | Active | inactive | Active |  | CCCNNC(=O)c1ccc(CNC(=O)/C=C/c2ccccc2)cc1 | Non-Toxic | EC50 (K562): 2.16 µM; Drug metabolism [3]: Metabolite_Detected; EC50 (HL-60): > 10 µM; EC50 (MOLM-14): 0.0766 µM; EC50 (RS4-11): 0.152 µM; EC50 (RPMI-8226): > 10 µM; Activity [5]: Non-Toxic
3 |  |  | < 0.03 µM |  |  |  |  | Nc1ccccc1NC(=O)c1ccc(CNC(=O)OCc2cccnc2)cc1 [ENTINOSTAT] |  | 
4 | Metabolite_Notdetected | Metabolite_Notdetected |  | Active | inactive | Active |  | CCCCNNC(=O)c1ccc(CNC(=O)c2ccccc2)cc1 | Non-Toxic | 
5 |  |  |  |  |  |  | > 10 µM | CCCCNNC(=O)c1cccc2ccccc12 |  | 
6 | Metabolite_Notdetected | Metabolite_Notdetected |  | Active | inactive | Active |  | CCCNNC(=O)c1ccc(CNC(=O)c2ccccc2)cc1 | Non-Toxic | Activity [5]: Non-Toxic
7 |  |  |  |  |  |  | > 10 µM | CC/C=N/NC(=O)c1ccc(CNC(=O)c2ccccc2)cc1 |  | inhibition ([4]; MV4-11, dose 100.0 nM): inactive; inhibition ([7]; MV4-11, dose 100.0 nM): inactive
8 |  |  |  |  |  |  | > 10 µM | CC(C)NNC(=O)c1ccc(CNC(=O)c2ccccc2)cc1 |  | 
9 |  |  |  |  |  |  | 1.55 µM | C/C=C/CNNC(=O)c1ccc(CNC(=O)c2ccccc2)cc1 |  | 
10 |  |  | < 0.03 µM |  |  |  |  | Cc1[nH]c2ccccc2c1CCNCc1ccc(/C=C/C(=O)NO)cc1 [PANOBINOSTAT] |  | Activity [8]: Toxic
